Experimental data: patent US12303845B2, “Method for crystallization of active pharmaceutical ingredients” (Nanoform Finland Oyj, priority 2023, dated 2025)

Columns and labels:
Assay type in all cases: physicochemical
[1] = Crystallization of amorphous nanosized API in aqueous polymer solution, polymorph/crystallinity by XRD; design: key to Polymorph: bulk = same as the API before conversion to amorphous nanoparticles
Experimental: XRPD measurements were carried out using the Malvern PANalytical Empyrean X-ray diffractometer equipped with a Cu Kα (1.54 Å) source, MultiCore optics and a solid-state PIXcel3D detector. By using Kapton tape the samples were attached onto aluminum or polycrystalline silicon sample holders. Dried slurries were measured without further sample preparation under Kapton tape and suspensions were filtered, dried, and filters were attached with double sided tape. The samples were measured in the reflection geometry in a spinning measurement stage. The measurement range was 5-40 (°2θ). The step size and time per step values were varied depending on the counts per second obtained.
Determination of crystallization of API nanoparticles was evaluated via kinetic study of suspension. Accordingly, XRD measurement was done for suspension in different time points.
Amorphous API nanoparticles (budesonide, ezetimibe, ceritinib, and apalutamide) were added as dry powders to aqueous polymer solutions. The mixtures were either • (i) mixed with a magnetic stirrer and ultrasonicated until API was completely surrounded by water (wetted). The stirring was continued for 16-24 h at ambient temperature or • (ii) blended with a metal spatula and allowed to stay at room temperature for 18-24 h.
The suspensions formed were analyzed after 18-24 h. SEM and XRD samples were prepared as described above.

[2] = SEM of crystallized suspensions and dried products (crystal size grade, particle size); design: key: 5 = nanocrystals; 1 = large crystals
Experimental: SEM images were captured using the Zeiss Sigma 300 VP SEM instruments. Samples were dispersed into water and filtered with 0.1 μm filter. Filters were dried, transferred to SEM sample holders, and coated with a 5 nm thick layer of platinum. Amorphous API nanoparticles (budesonide, ezetimibe, ceritinib, and apalutamide) were added as dry powders to aqueous polymer solutions. The mixtures were either • (i) mixed with a magnetic stirrer and ultrasonicated until API was completely surrounded by water (wetted). The stirring was continued for 16-24 h at ambient temperature or • (ii) blended with a metal spatula and allowed to stay at room temperature for 18-24 h. The suspensions formed were analyzed after 18-24 h. SEM and XRD samples were prepared as described above. Suspension comprising nanosized APIs prepared as shown above were dried in a vacuum desiccator overnight. The solid materials were grounded to produce powders. The powders were analyzed on XRD and SEM. The powders comprising nanosized APIs were used in the stability, permeability, and dissolution tests as described above.

[3] = Stability tests of solid material (SEM, XRD, HPLC); settings: materials prepared according to the disclosure; up to T30; crystallinity confirmed by XRD
Experimental: Solid material was weighted in separate vials (approx. 150 mg of material in each) and transferred to stability chambers. Three conditions were applied: ambient conditions (material in closed vial at RT), 25° C./65% RH and 40° C./75% RH. Material was analyzed at T0 as freshly prepared, T7 ([…]), T14 ([…]) and T30 (30 d) after the initiation of stability studies. SEM, XRD and dissolution/permeability studies were used to evaluate the crystallinity, particle size/morphology and performance of the material.

[4] = HPMC 1 wt.-%, SLS 0.2 wt.-%, mAPI 25 mg/g
[5] = HPMC 1 wt.-%, no SLS, mAPI 25 mg/g
[6] = HPMC 2.5 wt.-%, SLS 0.2 wt.-%, mAPI 25 mg/g
[7] = HPMC 2.5 wt.-%, no SLS, mAPI 25 mg/g
[8] = HPMC 5 wt.-%, SLS 0.2 wt.-%, mAPI 100 mg/g
[9] = HPMC 5 wt.-%, SLS 0.2 wt.-%, mAPI 150 mg/g
[10] = HPMC 5 wt.-%, SLS 0.2 wt.-%, mAPI 200 mg/g
[11] = HPMC 5 wt.-%, no SLS, mAPI 100 mg/g
[12] = PVPVA 1 wt.-%, SLS 0.2 wt.-%, mAPI 25 mg/g
[13] = PVPVA 1 wt.-%, no SLS, mAPI 25 mg/g polymer solution
[14] = PVPVA 2.5 wt.-%, SLS 0.2 wt.-%, mAPI 25 mg/g
[15] = PVPVA 2.5 wt.-%, no SLS, mAPI 25 mg/g
[16] = PVPVA 5 wt.-%, SLS 0.2 wt.-%, mAPI 25 mg/g
[17] = PVPVA 5 wt.-%, no SLS, mAPI 25 mg/g
[18] = PVPVA 10 wt.-%, SLS 0.2 wt.-%, mAPI 25 mg/g
[19] = PVPVA 10 wt.-%, no SLS, mAPI 25 mg/g
[20] = PVPVA 20 wt.-%, no SLS, mAPI 200 mg/g
[21] = PVPVA 25 wt.-%, SLS 0.2 wt.-%, mAPI 500 mg/g
[22] = PVPVA 25 wt.-%, no SLS, mAPI 250 mg/g
[23] = PVPVA 25 wt.-%, no SLS, mAPI 500 mg/g
[24] = PVPVA 45 wt.-%, SLS 0.2 wt.-%, mAPI 450 mg/g
[25] = PVPVA 45 wt.-%, no SLS, mAPI 450 mg/g
[26] = Poloxamer 407 1 wt.-%, SLS 0.2 wt.-%, mAPI 25 mg/g
[27] = Poloxamer 407 1 wt.-%, no SLS, mAPI 25 mg/g
[28] = Poloxamer 407 2.5 wt.-%, SLS 0.2 wt.-%, mAPI 25 mg/g
[29] = Poloxamer 407 2.5 wt.-%, no SLS, mAPI 25 mg/g
[30] = Poloxamer 407 5 wt.-%, SLS 0.2 wt.-%, mAPI 25 mg/g
[31] = Poloxamer 407 5 wt.-%, no SLS, mAPI 25 mg/g
[32] = Poloxamer 407 15 wt.-%, SLS 0.2 wt.-%, mAPI 150 mg/g
[33] = Poloxamer 407 15 wt.-%, SLS 0.2 wt.-%, mAPI 300 mg/g
[34] = Poloxamer 407 15 wt.-%, SLS 0.2 wt.-%, mAPI 450 mg/g
[35] = Poloxamer 407 15 wt.-%, no SLS, mAPI 150 mg/g
[36] = Poloxamer 407 15 wt.-%, no SLS, mAPI 300 mg/g
[37] = Poloxamer 407 15 wt.-%, no SLS, mAPI 450 mg/g
[38] = HPMC 5 wt.-%, SLS 0.2 wt.-%, mAPI 25 mg/g
[39] = HPMC 5 wt.-%, no SLS, mAPI 25 mg/g
[40] = HPMC 5 wt.-%, no SLS, mAPI 150 mg/g
[41] = PVP K30 1 wt.-%, no SLS, mAPI 25 mg/g
[42] = PVP K30 2.5 wt.-%, no SLS, mAPI 25 mg/g
[43] = PVP K30 5 wt.-%, no SLS, mAPI 25 mg/g
[44] = PVPVA 15 wt.-%, SLS 0.2 wt.-%, mAPI 150 mg/g
[45] = PVPVA 15 wt.-%, no SLS, mAPI 150 mg/g
[46] = PVPVA 25 wt.-%, SLS 0.2 wt.-%, mAPI 250 mg/g

CNC(=O)c1ccc(N2C(=S)N(c3cnc(C#N)c(C(F)(F)F)c3)C(=O)C23CCC3)cc1F [Apa, apalutamide]
Polymorph [1, 4]: new
Polymorph [1, 5]: new
Polymorph [1, 6]: new
Polymorph [1, 7]: new
Polymorph [1, 8]: new
Polymorph [1, 9]: new
Polymorph [1, 10]: new
Polymorph ([1]; HPMC 5 wt.-%, SLS 0.2 wt.-%, mAPI 250 mg/g): new
Polymorph ([1]; HPMC 5 wt.-%, SLS 0.2 wt.-%, mAPI 300 mg/g): new
Polymorph [1, 11]: amorphous
Polymorph [1, 12]: new
Polymorph [1, 13]: new
Polymorph [1, 14]: new
Polymorph [1, 15]: new
Polymorph [1, 16]: new
Polymorph [1, 17]: new
Polymorph [1, 18]: new
Polymorph [1, 19]: new
Polymorph ([1]; PVPVA 15 wt.-%, no SLS, mAPI 450 mg/g): amorphous
Polymorph ([1]; PVPVA 15 wt.-%, no SLS, mAPI 600 mg/g): amorphous
Polymorph [1, 20]: new
Polymorph ([1]; PVPVA 20 wt.-%, no SLS, mAPI 600 mg/g): amorphous
Polymorph [1, 21]: new
Polymorph [1, 22]: new
Polymorph [1, 23]: new
Polymorph [1, 24]: new
Polymorph [1, 25]: new
Polymorph [1, 26]: Form B
Polymorph [1, 27]: Form B
Polymorph [1, 28]: Form B
Polymorph [1, 29]: Form B
Polymorph [1, 30]: Form B
Polymorph [1, 31]: Form B
Polymorph [1, 32]: Form B
Polymorph [1, 33]: Form B
Polymorph [1, 34]: Form B
Polymorph [1, 35]: Form B
Polymorph [1, 36]: Form B
Polymorph [1, 37]: Form B
Grade (SEM, visual inspection) [2, 4]: 5
Grade (SEM, visual inspection) [2, 5]: 5
Grade (SEM, visual inspection) [2, 6]: 5
Grade (SEM, visual inspection) [2, 7]: 4
Grade (SEM, visual inspection) [2, 8]: 5
Grade (SEM, visual inspection) [2, 9]: 5
Grade (SEM, visual inspection) [2, 10]: 5
Grade (SEM, visual inspection) [2, 12]: 4
Grade (SEM, visual inspection) [2, 13]: 4
Grade (SEM, visual inspection) [2, 14]: 4
Grade (SEM, visual inspection) [2, 15]: 4
Grade (SEM, visual inspection) [2, 16]: 4
Grade (SEM, visual inspection) [2, 17]: 4
Grade (SEM, visual inspection) [2, 18]: 5
Grade (SEM, visual inspection) [2, 19]: 4
Grade (SEM, visual inspection) [2, 20]: 5
Grade (SEM, visual inspection) [2, 21]: 5
Grade (SEM, visual inspection) [2, 22]: 5
Grade (SEM, visual inspection) [2, 23]: 5
Grade (SEM, visual inspection) [2, 24]: 5
Grade (SEM, visual inspection) [2, 25]: 5
Grade (SEM, visual inspection) [2, 26]: 2
Grade (SEM, visual inspection) [2, 27]: 2
Grade (SEM, visual inspection) [2, 28]: 2
Grade (SEM, visual inspection) [2, 29]: 2
Grade (SEM, visual inspection) [2, 30]: 2
Grade (SEM, visual inspection) [2, 31]: 2
Grade (SEM, visual inspection) [2, 32]: 1
Grade (SEM, visual inspection) [2, 33]: 1
Grade (SEM, visual inspection) [2, 34]: 1
Grade (SEM, visual inspection) [2, 35]: 1
Grade (SEM, visual inspection) [2, 36]: 1
Grade (SEM, visual inspection) [2, 37]: 1

CCCC1O[C@@H]2C[C@H]3[C@@H]4CCC5=CC(=O)C=C[C@]5(C)[C@H]4[C@@H](O)C[C@]3(C)[C@]2(C(=O)CO)O1 (stereo partly drawn) [Bude, budesonide]
Polymorph [1, 4]: bulk
Polymorph [1, 5]: bulk
Polymorph [1, 6]: bulk
Polymorph [1, 7]: bulk
Polymorph [1, 38]: bulk
Polymorph [1, 8]: bulk
Polymorph [1, 9]: bulk
Polymorph [1, 39]: bulk
Polymorph [1, 11]: bulk
Polymorph [1, 40]: bulk
Polymorph [1, 41]: bulk
Polymorph [1, 42]: bulk
Polymorph [1, 43]: bulk
Polymorph [1, 12]: bulk
Polymorph [1, 13]: bulk
Polymorph [1, 14]: bulk
Polymorph [1, 15]: bulk
Polymorph [1, 16]: bulk
Polymorph [1, 17]: bulk
Polymorph [1, 44]: bulk
Polymorph [1, 45]: bulk
Polymorph [1, 20]: bulk
Polymorph [1, 46]: bulk
Polymorph [1, 22]: bulk
Polymorph [1, 25]: bulk
Polymorph [1, 27]: bulk
Polymorph [1, 29]: buik
Polymorph [1, 31]: bulk
Grade (SEM, visual inspection) [2, 4]: 5
Grade (SEM, visual inspection) [2, 5]: 5
Grade (SEM, visual inspection) [2, 6]: 5
Grade (SEM, visual inspection) [2, 7]: 5
Grade (SEM, visual inspection) [2, 38]: 5
Grade (SEM, visual inspection) [2, 8]: 5
Grade (SEM, visual inspection) [2, 9]: 5
Grade (SEM, visual inspection) [2, 39]: 5
Grade (SEM, visual inspection) [2, 11]: 5
Grade (SEM, visual inspection) [2, 40]: 5
Grade (SEM, visual inspection) [2, 41]: 3
Grade (SEM, visual inspection) [2, 42]: 3
Grade (SEM, visual inspection) [2, 43]: 3
Grade (SEM, visual inspection) [2, 12]: 4
Grade (SEM, visual inspection) [2, 13]: 3
Grade (SEM, visual inspection) [2, 14]: 4
Grade (SEM, visual inspection) [2, 15]: 2
Grade (SEM, visual inspection) [2, 16]: 4
Grade (SEM, visual inspection) [2, 17]: 2
Grade (SEM, visual inspection) [2, 44]: 5
Grade (SEM, visual inspection) [2, 45]: 5
Grade (SEM, visual inspection) [2, 20]: 5
Grade (SEM, visual inspection) [2, 46]: 5
Grade (SEM, visual inspection) [2, 22]: 5
Grade (SEM, visual inspection) [2, 25]: 5
Grade (SEM, visual inspection) [2, 27]: 1
Grade (SEM, visual inspection) [2, 29]: 1
Grade (SEM, visual inspection) [2, 31]: 1
Stability of nanocrystalline material over the stability study [3]: stable over the whole stability study
